pIC50: −log10 of the molar value. Read-outs that look alike come from different tables or passages of the source.
Target: T1, mouse TMEM16A mutant V543A (Mus musculus, UniProt Q8BHY3, V543A)
T1 construct: expressed in transfected cells; host or cells: HEK293T
T1 sequence (Q8BHY3 1-960 V543A): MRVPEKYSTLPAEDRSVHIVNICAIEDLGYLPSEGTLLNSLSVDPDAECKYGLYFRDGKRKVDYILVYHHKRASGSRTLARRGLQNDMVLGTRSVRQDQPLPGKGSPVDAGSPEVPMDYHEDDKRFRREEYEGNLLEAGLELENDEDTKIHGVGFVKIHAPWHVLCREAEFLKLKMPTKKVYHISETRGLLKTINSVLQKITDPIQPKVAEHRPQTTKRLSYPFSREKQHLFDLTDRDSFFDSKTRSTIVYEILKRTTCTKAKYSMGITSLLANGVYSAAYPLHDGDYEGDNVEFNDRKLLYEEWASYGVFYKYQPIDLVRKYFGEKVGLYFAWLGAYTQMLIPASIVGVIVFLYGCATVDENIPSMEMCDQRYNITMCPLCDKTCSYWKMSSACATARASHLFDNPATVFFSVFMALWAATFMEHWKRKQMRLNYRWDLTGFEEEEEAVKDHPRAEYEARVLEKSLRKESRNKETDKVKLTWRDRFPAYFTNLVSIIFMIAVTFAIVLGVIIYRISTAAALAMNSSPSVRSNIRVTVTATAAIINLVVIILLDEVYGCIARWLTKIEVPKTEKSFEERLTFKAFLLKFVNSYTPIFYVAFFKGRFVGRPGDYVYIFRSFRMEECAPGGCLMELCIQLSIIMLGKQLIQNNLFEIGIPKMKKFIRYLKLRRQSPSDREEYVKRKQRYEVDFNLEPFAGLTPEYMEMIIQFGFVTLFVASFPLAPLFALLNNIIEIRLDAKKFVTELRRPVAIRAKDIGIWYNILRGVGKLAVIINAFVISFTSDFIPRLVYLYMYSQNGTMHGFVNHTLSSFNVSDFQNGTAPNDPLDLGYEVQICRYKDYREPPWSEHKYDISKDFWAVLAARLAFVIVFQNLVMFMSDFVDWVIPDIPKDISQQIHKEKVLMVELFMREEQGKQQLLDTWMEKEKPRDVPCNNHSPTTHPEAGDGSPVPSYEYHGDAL
Assay: Inside-out patch recording of 1PBC block, mutant V543A
Format: cell-based
Conditions: for remaining activity at 30 µM: 1PBC 30; for remaining activity at 30 µM / remaining activity at 100 µM: read-out: fraction of unblocked current; for remaining activity at 100 µM: 1PBC 100
Procedure: HEK293T cells (ATCC CRL-1573) were maintained in Dulbecco’s modified Eagle’s medium (DMEM; Sigma-Aldrich) supplemented with 10 U ml^−1 penicillin, 0.1 mg ml^−1 streptomycin (Sigma-Aldrich), 2 mM L-glutamine (Sigma-Aldrich), and 10% FBS (Sigma-Aldrich) in a humidified atmosphere containing 5% CO2 at 37 °C. HEK293S GnTI^− cells (ATCC CRL-3022) were maintained in HyClone HyCell TransFx-H medium (GE Healthcare) supplemented with 10 U ml^−1 penicillin, 0.1 mg ml^−1 streptomycin, 4 mM L-glutamine, 0.15% poloxamer 188 (Sigma-Aldrich), and 1% FBS in an atmosphere containing 5% CO2 at 185 rpm at 37 °C. The ac splice variant of mouse TMEM16A (UniProt ID: Q8BHY3), mouse TMEM16B (UniProt ID: Q8CFW1), or mouse TMEM16F (UniProt ID: Q6P9J9) bearing a 3C cleavage site, a Venus YFP, a Myc tag, and a Streptavidin-binding peptide (SBP) downstream of the open reading frame in a modified pcDNA3.1 vector (Invitrogen) were used as described previously[21],[31]. Mutations were introduced using a modified QuikChange method[58] and were verified by sequencing.
HEK293T cells were transfected with 3–4 μg DNA per 6 cm Petri dish using the calcium phosphate co-precipitation method and were used within 24–96 h after transfection. Recordings were performed on inside-out patches excised from HEK293T cells expressing the construct of interest. Patch pipettes were pulled from borosilicate glass capillaries (O.D. 1.5 mm, I.D. 0.86 mm, Sutter Instrument) and were fire-polished with a microforge (Narishige) before use. Pipette resistance was typically 3–8 MΩ when filled with the recording solutions detailed below. Seal resistance was typically 4 GΩ or higher. Voltage-clamp recordings were made using Axopatch 200B, Digidata 1550, and Clampex 10.7 (Molecular Devices). Analog signals were filtered with the in-built 4-pole Bessel filter at 10 kHz and were digitized at 20 kHz. Solution exchange was achieved using a gravity-fed system through a theta glass pipette mounted on an ultra-fast piezo-driven stepper (Siskiyou). […] All recordings were performed at 20 °C.
A symmetrical ionic condition was used throughout. Stock solution with Ca^2+-EGTA contained 150 mM NaCl, 5.99 mM Ca(OH)2, 5 mM EGTA, and 10 mM HEPES at pH 7.40. Stock solution with EGTA contained 150 mM NaCl, 5 mM EGTA, and 10 mM HEPES at pH 7.40. Free Ca^2+ concentrations were adjusted by mixing the stock solutions at the required ratios calculated using the WEBMAXC program (http://web.stanford.edu/~cpatton/webmaxcS.htm). Patch pipettes were filled with the stock solution with Ca^2+-EGTA, which has a free Ca^2+ concentration of 1 mM. 1PBC (ChemBridge) stock was reconstituted in anhydrous DMSO (Sigma-Aldrich) at 100 mM and stored at −20 °C. Working solutions with 1PBC were prepared by serial dilution. Unless otherwise stated, experiments were performed at a saturating Ca^2+ concentration as shown in Supplementary Table 1 and the primary data were corrected for current rundown as described previously[21],[25].
Concentration-response relations, obtained from the ratio of the I-V plots before and after the application of the blocker, were fitted to the Hill equation,1 I/Imax=1/1+IC50/[blocker]^h where I/Imax is the normalized current responses, IC50 defines the concentration at which inhibition is at its half-maximum, and h is the Hill coefficient.

**Q.** With `N#Cc1c(C(F)(F)F)cc(O)n2c1nc1ccccc12` [1PBC] as the compound, how does the remaining activity at 30 µM (-60 mV) read?
**A.** The remaining activity at 30 µM was 39.5%.

**Q.** And the remaining activity at 30 µM (-80 mV)?
**A.** The remaining activity at 30 µM was 43.8%.

**Q.** What about the remaining activity at 30 µM (-100 mV) of the same compound?
**A.** The remaining activity at 30 µM was 47.1%.

**Q.** What about the remaining activity at 30 µM (-120 mV) of the same compound?
**A.** The remaining activity at 30 µM was 51.5%.

**Q.** What about the remaining activity at 30 µM (-140 mV) of the same compound?
**A.** The remaining activity at 30 µM was 54.7%.

**Q.** And the remaining activity at 100 µM (0 mV)?
**A.** Its remaining activity at 100 µM is 9.46%.

**Q.** And the remaining activity at 100 µM (20 mV)?
**A.** Its remaining activity at 100 µM is 7.3%.

**Q.** And the remaining activity at 100 µM (40 mV)?
**A.** Its remaining activity at 100 µM is 6.78%.

**Q.** What about the remaining activity at 100 µM (60 mV) of the same compound?
**A.** Its remaining activity at 100 µM is 6.85%.

**Q.** And the remaining activity at 100 µM (80 mV)?
**A.** The remaining activity at 100 µM was 6.35%.

**Q.** What about the remaining activity at 100 µM (100 mV) of the same compound?
**A.** Its remaining activity at 100 µM is 6.17%.

**Q.** What about the remaining activity at 100 µM (120 mV) of the same compound?
**A.** The remaining activity at 100 µM was 6.44%.

**Q.** And the remaining activity at 100 µM (140 mV)?
**A.** The remaining activity at 100 µM was 6.48%.

**Q.** What about the remaining activity at 100 µM (-20 mV) of the same compound?
**A.** The remaining activity at 100 µM was 11.6%.

**Q.** And the remaining activity at 100 µM (-40 mV)?
**A.** The remaining activity at 100 µM was 13.7%.

**Q.** And the remaining activity at 100 µM (-60 mV)?
**A.** The remaining activity at 100 µM was 16%.

**Q.** And the remaining activity at 100 µM (-80 mV)?
**A.** Its remaining activity at 100 µM is 18.7%.

**Q.** And the remaining activity at 100 µM (-100 mV)?
**A.** Its remaining activity at 100 µM is 21.8%.

**Q.** And the remaining activity at 100 µM (-120 mV)?
**A.** The remaining activity at 100 µM was 25%.

**Q.** What about the remaining activity at 100 µM (-140 mV) of the same compound?
**A.** The remaining activity at 100 µM was 27.8%.

**Q.** What about the pIC50 (20 mV, 15 µM Ca2+) of the same compound?
**A.** Its pIC50 is 5.02.

**Q.** What about the pIC50 (40 mV, 15 µM Ca2+) of the same compound?
**A.** Its pIC50 is 5.06.

**Q.** What about the pIC50 (60 mV, 15 µM Ca2+) of the same compound?
**A.** The pIC50 was 5.09.

**Q.** And the “log-fold IC50 (change of mutant vs WT)” value (80 mV)?
**A.** Its value is 0.6263.

**Q.** What about the pIC50 (80 mV, 15 µM Ca2+) of the same compound?
**A.** Its pIC50 is 5.10.

**Q.** And the pIC50 (100 mV, 15 µM Ca2+)?
**A.** Its pIC50 is 5.08.

**Q.** What about the pIC50 (120 mV, 15 µM Ca2+) of the same compound?
**A.** Its pIC50 is 5.05.

**Q.** What about the pIC50 (140 mV, 15 µM Ca2+) of the same compound?
**A.** Its pIC50 is 5.02.

**Q.** And the pIC50 (-20 mV, 15 µM Ca2+)?
**A.** The pIC50 was 4.88.

**Q.** And the pIC50 (-40 mV, 15 µM Ca2+)?
**A.** The pIC50 was 4.81.

**Q.** And the pIC50 (-60 mV, 15 µM Ca2+)?
**A.** Its pIC50 is 4.73.

**Q.** And the pIC50 (-80 mV, 15 µM Ca2+)?
**A.** The pIC50 was 4.66.

**Q.** What about the pIC50 (-100 mV, 15 µM Ca2+) of the same compound?
**A.** Its pIC50 is 4.59.

**Q.** What about the pIC50 (-120 mV, 15 µM Ca2+) of the same compound?
**A.** Its pIC50 is 4.52.

**Q.** What about the pIC50 (-140 mV, 15 µM Ca2+) of the same compound?
**A.** The pIC50 was 4.46.

**Q.** What about the pIC50 (V543A, V 0 mV) of the same compound?
**A.** Its pIC50 is 4.95.

**Q.** And the pIC50 (V543A, V 20 mV)?
**A.** Its pIC50 is 5.02.

**Q.** What about the pIC50 (V543A, V 40 mV) of the same compound?
**A.** The pIC50 was 5.06.

**Q.** And the pIC50 (V543A, V 60 mV)?
**A.** The pIC50 was 5.09.

**Q.** What about the pIC50 (V543A, V 80 mV) of the same compound?
**A.** The pIC50 was 5.10.

**Q.** What about the pIC50 (V543A, V 100 mV) of the same compound?
**A.** The pIC50 was 5.08.

**Q.** What about the pIC50 (V543A, V 120 mV) of the same compound?
**A.** The pIC50 was 5.05.

**Q.** What about the pIC50 (V543A, V 140 mV) of the same compound?
**A.** Its pIC50 is 5.02.

**Q.** What about the pIC50 (V543A, V -20 mV) of the same compound?
**A.** Its pIC50 is 4.88.

**Q.** And the pIC50 (V543A, V -40 mV)?
**A.** The pIC50 was 4.81.

**Q.** And the pIC50 (V543A, V -60 mV)?
**A.** Its pIC50 is 4.73.

**Q.** What about the pIC50 (V543A, V -80 mV) of the same compound?
**A.** The pIC50 was 4.66.

**Q.** What about the pIC50 (V543A, V -100 mV) of the same compound?
**A.** Its pIC50 is 4.59.

**Q.** And the pIC50 (V543A, V -120 mV)?
**A.** The pIC50 was 4.52.

**Q.** What about the pIC50 (V543A, V -140 mV) of the same compound?
**A.** Its pIC50 is 4.46.
